Patent publication US8563542B2 (Cyclacel Limited, priority 2007, dated 2013)

Target: PLK1 (Homo sapiens, UniProt P53350)
Assay: PLK1 protein kinase assay (CDC25C phosphorylation, [γ-32P]-ATP)
Type: biochemical
Settings: Table 2, PLK1 IC50; class symbols; read-out: PLK1 IC50

Sequence of PLK1 (P53350 whole entry): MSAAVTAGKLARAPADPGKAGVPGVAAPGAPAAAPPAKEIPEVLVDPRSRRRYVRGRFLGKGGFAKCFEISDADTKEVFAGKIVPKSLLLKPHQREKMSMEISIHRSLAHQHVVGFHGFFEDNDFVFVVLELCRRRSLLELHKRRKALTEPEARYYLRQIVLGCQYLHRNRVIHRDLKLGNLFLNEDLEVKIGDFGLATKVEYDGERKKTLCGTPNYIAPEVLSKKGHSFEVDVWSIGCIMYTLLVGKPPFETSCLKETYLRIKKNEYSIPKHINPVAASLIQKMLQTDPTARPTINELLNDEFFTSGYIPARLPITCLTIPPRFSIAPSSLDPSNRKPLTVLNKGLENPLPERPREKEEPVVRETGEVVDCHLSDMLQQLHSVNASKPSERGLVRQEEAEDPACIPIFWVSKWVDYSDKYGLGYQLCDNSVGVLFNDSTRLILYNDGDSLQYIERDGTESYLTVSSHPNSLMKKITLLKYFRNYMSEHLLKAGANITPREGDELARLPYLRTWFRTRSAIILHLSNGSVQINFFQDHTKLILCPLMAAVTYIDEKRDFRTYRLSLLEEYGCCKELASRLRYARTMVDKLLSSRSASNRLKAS

| SMILES | IC50 |
| --- | --- |
| COc1cc(C(=O)NC2CCN(C)CC2)ccc1Nc1ncc2c(n1)N(c1ccccc1OC)CCC(=O)N2C [compound 277, 3-Methoxy-4-[9-(2-methoxy-phenyl)-5-methyl-6-oxo-6,7,8,9-tetrahydro-5H-pyrimido[4,5-b][1,4]diazepin-2-ylamino]-N-(1-methyl-piperidin-4-yl)-benzamide] | < 10 µM |
| COc1cc(C(=O)NC2CC(C)(C)N(C)C(C)(C)C2)ccc1Nc1ncc2c(n1)N(c1ccccc1OC)CCC(=O)N2C [compound 278, 3-Methoxy-4-[9-(2-methoxy-phenyl)-5-methyl-6-oxo-6,7,8,9-tetrahydro-5H-pyrimido[4,5-b][1,4]diazepin-2-ylamino]-N-(1,2,2,6,6-pentamethyl-piperidin-4-yl)-benzamide] | < 10 µM |
| COc1cc(C(=O)NC2CN3CCC2CC3)ccc1Nc1ncc2c(n1)N(c1ccccc1OC)CCC(=O)N2C (stereo not shown) [compound 279, N-(1-Aza-bicyclo[2.2.2]oct-3-yl)-3-methoxy-4-[9-(2-methoxy-phenyl)-5-methyl-6-oxo-6,7,8,9-tetrahydro-5H-pyrimido[4,5-b][1,4]diazepin-2-ylamino]-benzamide] | < 10 µM |
| Cc1cc(C(=O)O)ccc1Nc1ncc2c(n1)N(C1CCCC1)CC1(CC1)C(=O)N2C [compound 280, 4-(9-Cyclopentyl-5-methyl-6-oxo-6,7,8,9-tetrahydro-5H-pyrimido[4,5-b][1,4]diazepin-3,1′-cyclopropane-2-ylamino)-3-methyl-benzoic acid] | < 10 µM |
| CN1C(=O)C2(CC2)CN(C2CCCC2)c2nc(Nc3ccc(C(=O)O)cc3F)ncc21 [compound 283, 4-(9-Cyclopentyl-5-methyl-6-oxo-6,7,8,9-tetrahydro-5H-spiro[pyrimido[4,5-b][1,4]diazepin-3,1′-cyclopropane]-2-ylamino)-3-fluorobenzoic acid] | < 0.1 µM |
| CN1CCC(NC(=O)c2ccc(Nc3ncc4c(n3)N(C3CCCC3)CC3(CC3)C(=O)N4C)c(OC(F)(F)F)c2)CC1 [compound 284, 4-(9-Cyclopentyl-5-methyl-6-oxo-6,7,8,9-tetrahydro-5H-spiro[pyrimido[4,5-b][1,4]diazepin-3,1′-cyclopropane]-2-ylamino)-3-trifluoromethoxy-N-(1-methyl-piperidin-4-yl)-benzamide] | < 0.1 µM |
| Cc1cc(C(=O)NC2CCN(C)CC2)ccc1Nc1ncc2c(n1)N(C1CCCC1)CC1(CC1)C(=O)N2C [compound 301] | < 1 µM |
| COc1cc(C(=O)NC2CCN(C)CC2)ccc1Nc1ncc2c(n1)N(CC(C)C)CCC(=O)N2C [compound 302, 4-(9-Isobutyl-5-methyl-6-oxo-6,7,8,9-tetrahydro-5H-pyrimido[4,5-b][1,4]diazepin-2-ylamino)-3-methoxy-N-(1-methyl-piperidin-4-yl)-benzamide] | < 1 µM |
| COc1cc(C(=O)NC2CCCN(C)C2)ccc1Nc1ncc2c(n1)N(CC(C)C)CCC(=O)N2C (stereo not shown) [compound 303, 4-(9-Isobutyl-5-methyl-6-oxo-6,7,8,9-tetrahydro-5H-pyrimido[4,5-b][1,4]diazepin-2-ylamino)-3-methoxy-N-(1-methyl-piperidin-3-yl)-benzamide] | < 1 µM |
| COc1cc(C(=O)NC2CCN(Cc3ccccc3)CC2)ccc1Nc1ncc2c(n1)N(CC(C)C)CCC(=O)N2C [compound 304, N-(1-Benzyl-piperidin-4-yl)-4-(9-isobutyl-5-methyl-6-oxo-6,7,8,9-tetrahydro-5H-pyrimido[4,5-b][1,4]diazepin-2-ylamino)-3-methoxy-benzamide] | < 1 µM |
| COc1cc(C(=O)NC2CN3CCC2CC3)ccc1Nc1ncc2c(n1)N(CC(C)C)CCC(=O)N2C (stereo not shown) [compound 305, N-(1-Aza-bicyclo[2.2.2]oct-3-yl)-4-(9-isobutyl-5-methyl-6-oxo-6,7,8,9-tetrahydro-5H-pyrimido[4,5-b][1,4]diazepin-2-ylamino)-3-methoxy-benzamide] | < 1 µM |
| COc1cc(C(=O)NC2CC(C)(C)N(C)C(C)(C)C2)ccc1Nc1ncc2c(n1)N(CC(C)C)CCC(=O)N2C [compound 306, 4-(9-Isobutyl-5-methyl-6-oxo-6,7,8,9-tetrahydro-5H-pyrimido[4,5-b][1,4]diazepin-2-ylamino)-3-methoxy-N-(1,2,2,6,6-pentamethyl-piperidin-4-yl)-benzamide] | < 1 µM |
| CCN(CC)CCNC(=O)c1ccc(Nc2ncc3c(n2)N(CC(C)C)CCC(=O)N3C)c(OC)c1 [compound 307, N-(2-Diethylamino-ethyl)-4-(9-isobutyl-5-methyl-6-oxo-6,7,8,9-tetrahydro-5H-pyrimido[4,5-b][1,4]diazepin-2-ylamino)-3-methoxy-benzamide] | < 1 µM |
| COc1cc(C(=O)NC2CCN(C)CC2)ccc1Nc1ncc2c(n1)N(c1ccccc1C)CCC(=O)N2C [compound 308, 3-Methoxy-4-(5-methyl-6-oxo-9-o-tolyl-6,7,8,9-tetrahydro-5H-pyrimido[4,5-b][1,4]diazepin-2-ylamino)-N-(1-methyl-piperidin-4-yl)-benzamide] | < 10 µM |
| COc1cc(C(=O)NC2CCCN(C)C2)ccc1Nc1ncc2c(n1)N(c1ccccc1C)CCC(=O)N2C (stereo not shown) [compound 309, 3-Methoxy-4-(5-methyl-6-oxo-9-o-tolyl-6,7,8,9-tetrahydro-5H-pyrimido[4,5-b][1,4]diazepin-2-ylamino)-N-(1-methyl-piperidin-3-yl)-benzamide] | < 10 µM |
| COc1cc(C(=O)NC2CCN(Cc3ccccc3)CC2)ccc1Nc1ncc2c(n1)N(c1ccccc1C)CCC(=O)N2C [compound 310, N-(1-Benzyl-piperidin-4-yl)-3-methoxy-4-(5-methyl-6-oxo-9-o-tolyl-6,7,8,9-tetrahydro-5H-pyrimido[4,5-b][1,4]diazepin-2-ylamino)-benzamide] | < 10 µM |
| COc1cc(C(=O)NC2CN3CCC2CC3)ccc1Nc1ncc2c(n1)N(c1ccccc1C)CCC(=O)N2C (stereo not shown) [compound 311, N-(1-Aza-bicyclo[2.2.2]oct-3-yl)-3-methoxy-4-(5-methyl-6-oxo-9-o-tolyl-6,7,8,9-tetrahydro-5H-pyrimido[4,5-b][1,4]diazepin-2-ylamino)-benzamide] | < 1 µM |
| COc1cc(C(=O)NC2CC(C)(C)N(C)C(C)(C)C2)ccc1Nc1ncc2c(n1)N(c1ccccc1C)CCC(=O)N2C [compound 312, 3-Methoxy-4-(5-methyl-6-oxo-9-o-tolyl-6,7,8,9-tetrahydro-5H-pyrimido[4,5-b][1,4]diazepin-2-ylamino)-N-(1,2,2,6,6-pentamethyl-piperidin-4-yl)-benzamide] | < 10 µM |
| CCN(CC)CCNC(=O)c1ccc(Nc2ncc3c(n2)N(c2ccccc2C)CCC(=O)N3C)c(OC)c1 [compound 313, N-(2-Diethylamino-ethyl)-3-methoxy-4-(5-methyl-6-oxo-9-o-tolyl-6,7,8,9-tetrahydro-5H-pyrimido[4,5-b][1,4]diazepin-2-ylamino)-benzamide] | < 10 µM |
| COc1ccc(N2CCC(=O)N(C)c3cnc(Nc4ccc(C(=O)NC5CCN(C)CC5)cc4OC)nc32)cc1 [compound 314] | < 1 µM |
| COc1ccc(N2CCC(=O)N(C)c3cnc(Nc4ccc(C(=O)NC5CCCN(C)C5)cc4OC)nc32)cc1 (stereo not shown) [compound 315] | < 1 µM |
| COc1ccc(N2CCC(=O)N(C)c3cnc(Nc4ccc(C(=O)NC5CCN(Cc6ccccc6)CC5)cc4OC)nc32)cc1 [compound 316, N-(1-Benzyl-piperidin-4-yl)-3-methoxy-4-[9-(4-methoxy-phenyl)-5-methyl-6-oxo-6,7,8,9-tetrahydro-5H-pyrimido[4,5-b][1,4]diazepin-2-ylamino]-benzamide] | < 1 µM |
